# Source: patent publication US11623927B2, “Substituted [1,2,4]triazolo[1,5-a]pyrimidines for stabilizing microtubules” (THE TRUSTEES OF THE UNIVERSITY OF PENNSYLVANIA, priority 2018, dated 2023)
# Columns and labels:
# MTs [1] = details: in words; versus vincristine, taxol, colchicine; cited from earlier work
# total α-tubulin = assay: cell-based MT assay: total α-tubulin by ELISA in cell lysates; details: for Total α-Tubulin: 4 h incubation, ELISA, relative level, average and SD of triplicate; for effect on total tubulin: in words, see FIG. 1 (compound 22, HEK-293 cells, 4 h)
# Method: (§1) The compounds where then evaluated in a cell-based MT assay as described in Kovalevich, Characterization of brain-penetrant pyrimidine-containing molecules with differential microtubule-stabilizing activities developed as potential therapeutic agents for Alzheimer's disease and related tauopathies. J. Pharmacol. Exp. Ther., 2016, 357, 432-50. In summary, acetylated α-tubulin and total α-tubulin levels were determined by ELISA in cell lysates after 4 h of incubation with test compound at either 1 or 10 μM. See, Table 1.
# MTs [2] = details: in words; cited from earlier work
# acetylated α-tubulin = assay: cell-based MT assay: acetylated α-tubulin by ELISA in cell lysates; details: for Acetylated α-Tubulin: 4 h incubation, ELISA, relative level, average and SD of triplicate; for relative activity in the cell-based MT assay / shape of dose-response: in words; for relative activity in the cell-based MT assay: comparison among tested compounds; for shape of dose-response: see FIG. 1 (compound 22, HEK-293 cells, 4 h)
# Method: as §1
SMILES,Total α-Tubulin (total α-tubulin; 10 μM test compound),effect on total tubulin (total α-tubulin),relative activity in the cell-based MT assay (acetylated α-tubulin),shape of dose-response (acetylated α-tubulin),further results
"CNCCCOc1cc(F)c(-c2c(Cl)nc3ncnn3c2N[C@@H](C)C(F)(F)F)c(F)c1 [Cevipabulin (1), Cevipabulin]",,,,,competition for binding to MTs (MTs [1]): competes with vincristine but not taxol or colchicine
"CO[C@H]1C[C@H]2CC[C@@H](C1)N2c1c(-c2c(F)cc(F)cc2F)c(Cl)nc2ncnn12 [Compound 2, reference compound]",,,,,Total α-Tubulin (total α-tubulin; 1 μM test compound): 1.12 ± 0.08; binding to MTs versus unpolymerized tubulin heterodimers (MTs [2]): binds exclusively to MTs and not to unpolymerized tubulin heterodimers
"C[C@H](Nc1c(-c2c(F)cc(OCCCNC(=O)c3ccc(C4(C(F)(F)F)N=N4)cc3)cc2F)c(Cl)nc2ncnn12)C(F)(F)F [Compound 11, (S)—N-(3-(4-(5-chloro-7-((1,1,1-trifluoropropan-2-yl)amino)-[1,2,4]triazolo[1,5-a]pyrimidin-6-yl)-3,5-difluorophenoxy)propyl)-4-(3-(trifluoromethyl)-3H-diazirin-3-yl)benzamide]",0.88 ± 0.05,,,,Acetylated α-Tubulin (acetylated α-tubulin; 1 μM test compound): 1.30 ± 0.28
"C[C@H](Nc1c(-c2c(F)cc(F)cc2F)c(Cl)nc2ncnn12)C1(C)N=N1 [Compound 14, (S)-5-chloro-N-(1-(3-methyl-3H-diazirin-3-yl)ethyl)-6-(2,4,6-trifluorophenyl)-[1,2,4]triazolo[1,5-a]pyrimidin-7-amine]",0.94 ± 0.02,,,,
"C[C@@H](Nc1c(-c2c(F)cc(OCCCN(C)C)cc2F)c(Cl)nc2ncnn12)C1(C)N=N1 [Compound 21, (R)-5-chloro-6-(4-(3-(dimethylamino)propoxy)-2,6-difluorophenyl)-N-(1-(3-methyl-3H-diazirin-3-yl)ethyl)-[1,2,4]triazolo[1,5-a]pyrimidin-7-amine]",,profound loss of total tubulin in a dose-dependent manner,most active,bell-shaped dose-response,Acetylated α-Tubulin (acetylated α-tubulin; 10 μM test compound): 0.93 ± 0.03
"CN(C)CCCOc1cc(F)c(-c2c(Cl)nc3ncnn3c2NCC2(C)N=N2)c(F)c1 [Compound 22, 5-chloro-6-(4-(3-(dimethylamino)propoxy)-2,6-difluorophenyl)-N-((3-methyl-3H-diazirin-3-yl)methyl)-[1,2,4]triazolo[1,5-a]pyrimidin-7-amine]",,profound loss of total tubulin in a dose-dependent manner,most active,bell-shaped dose-response,
